Laboratory results taken from ChEMBL document CHEMBL4024755, “Pharmacophore Hybridization To Discover Novel Topoisomerase II Poisons with Promising Antiproliferative Activity” (J Med Chem, 2018).
The source made the active and inactive calls. The rule behind the calls is not given here.

Experiments:
[1] = test system: DU-145; experiment: Antiproliferative activity against human DU145 cells after 72 hrs by MTT assay; assay type: functional, cell-based; settings: DU-145, 72 h
[2] = species on record: Bos taurus; experiment: Binding affinity to calf thymus DNA in absence of topo2 enzyme by circular dichroism titration analysis
[3] = test system: A549; experiment: Antiproliferative activity against human A549 cells after 72 hrs by MTT assay; assay type: functional, cell-based; settings: A549, 72 h
[4] = biological target: T1, DNA topoisomerase 2-alpha (Homo sapiens, UniProt P11388); experiment: Poison activity at human Topo2alpha expressed in baculovirus-infected insect cells using pBR322 as substrate assessed as concentration required to observe the same amount of topo2/DNA cleavage complex generated by etoposide at 20 uM after 6 minutes by ethidium bromide staining based agarose gel electrophoresis
[5] = test system: MCF7; experiment: Antiproliferative activity against human MCF7 cells after 72 hrs by MTT assay; assay type: functional, cell-based; settings: MCF7, 72 h
[6] = test system: HeLa; experiment: Antiproliferative activity against human HeLa cells after 72 hrs by MTT assay; assay type: functional, cell-based
[7] = species on record: Bos taurus; experiment: Binding affinity to calf thymus DNA at 50 uM by UV-spectrophotometric analysis
[8] = biological target: T1, DNA topoisomerase 2-alpha; experiment: Inhibition of human topoisomerase 2alpha expressed in baculovirus-infected insect cells assessed as reduction in pBR322 supercoiled DNA relaxation after 60 mins by ethidium bromide staining based agarose gel electrophoresis
[9] = test system: HeLa; experiment: Inhibition of human of DNA topoisomerase 2 in human HeLa cells assessed as induction of H2AX phosphorylation at 10 uM after 90 mins by NuPAGE based electrophoresis; assay type: cell-based
[10] = biological target: T1, DNA topoisomerase 2-alpha; experiment: Poison activity at human Topo2alpha expressed in baculovirus-infected insect cells using pBR322 as substrate assessed as topo2/DNA cleavage complex generation after 6 minutes by ethidium bromide staining based agarose gel electrophoresis

T1 sequence (P11388 whole entry): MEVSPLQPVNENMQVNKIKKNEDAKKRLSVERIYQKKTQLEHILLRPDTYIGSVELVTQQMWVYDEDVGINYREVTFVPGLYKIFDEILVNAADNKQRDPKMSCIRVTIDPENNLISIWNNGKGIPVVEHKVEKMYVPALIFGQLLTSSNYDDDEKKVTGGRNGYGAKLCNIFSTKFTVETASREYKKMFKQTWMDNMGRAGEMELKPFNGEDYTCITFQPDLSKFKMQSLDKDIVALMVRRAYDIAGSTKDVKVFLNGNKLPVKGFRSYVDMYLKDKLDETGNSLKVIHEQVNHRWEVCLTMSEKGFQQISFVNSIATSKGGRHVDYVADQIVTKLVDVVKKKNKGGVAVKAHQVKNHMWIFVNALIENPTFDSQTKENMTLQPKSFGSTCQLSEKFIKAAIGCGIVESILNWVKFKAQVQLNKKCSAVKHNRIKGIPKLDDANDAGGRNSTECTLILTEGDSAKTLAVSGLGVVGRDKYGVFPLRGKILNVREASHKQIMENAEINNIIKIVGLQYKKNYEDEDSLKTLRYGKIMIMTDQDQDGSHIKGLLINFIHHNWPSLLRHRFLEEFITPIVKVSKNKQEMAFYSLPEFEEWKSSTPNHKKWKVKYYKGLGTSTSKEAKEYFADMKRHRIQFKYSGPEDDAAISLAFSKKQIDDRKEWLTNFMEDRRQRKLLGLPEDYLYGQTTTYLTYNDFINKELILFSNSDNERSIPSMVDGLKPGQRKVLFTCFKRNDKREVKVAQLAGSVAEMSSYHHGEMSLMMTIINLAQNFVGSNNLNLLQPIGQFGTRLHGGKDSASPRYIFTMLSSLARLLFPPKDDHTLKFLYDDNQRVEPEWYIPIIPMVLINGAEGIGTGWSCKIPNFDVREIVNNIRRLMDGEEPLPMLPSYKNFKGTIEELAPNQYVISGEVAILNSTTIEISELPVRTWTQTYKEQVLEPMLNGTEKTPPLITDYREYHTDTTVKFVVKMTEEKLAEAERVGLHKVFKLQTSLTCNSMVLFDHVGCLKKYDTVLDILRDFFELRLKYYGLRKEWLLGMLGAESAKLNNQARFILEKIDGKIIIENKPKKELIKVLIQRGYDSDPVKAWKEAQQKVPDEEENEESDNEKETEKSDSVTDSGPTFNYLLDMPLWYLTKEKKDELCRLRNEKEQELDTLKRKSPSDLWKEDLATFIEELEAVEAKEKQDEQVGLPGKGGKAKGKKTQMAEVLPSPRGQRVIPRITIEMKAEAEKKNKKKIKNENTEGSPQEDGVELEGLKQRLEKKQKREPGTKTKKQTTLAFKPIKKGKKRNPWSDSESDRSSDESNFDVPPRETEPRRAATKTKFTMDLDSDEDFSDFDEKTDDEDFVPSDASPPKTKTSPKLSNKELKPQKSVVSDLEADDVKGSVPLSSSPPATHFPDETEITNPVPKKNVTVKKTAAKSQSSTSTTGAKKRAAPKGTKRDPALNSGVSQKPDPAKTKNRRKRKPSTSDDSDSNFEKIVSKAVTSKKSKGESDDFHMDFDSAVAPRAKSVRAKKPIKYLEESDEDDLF

COc1cccc(NC(=O)c2c(O)n(-c3ccccc3)c(=S)n(-c3ccccc3)c2=O)c1 was tested, and the IC50 [1] was 12.5 µM, the Activity [2] was “inactive” and the IC50 [3] was 6.9 µM. It also gave an Activity [4] of 100 µM, an IC50 [5] of 14 µM and an IC50 [6] of 8.5 µM. The Activity [7] was “inactive” and the IC50 [8] was 30 µM.
In the case of O=C(Nc1ccccc1)c1c(O)n(-c2ccccc2)c(=S)n(-c2ccccc2)c1=O, the IC50 [1] is reported as 16.8 µM, the inhibition [9] is reported as “Active” and the Activity [2] is reported as “inactive”. The IC50 [3] was 9.2 µM, the Activity [4] was 200 µM and the IC50 [5] was 13.6 µM. For the same compound, the IC50 [6] was 10.8 µM, the Activity [7] was “inactive” and the IC50 [8] was 5 µM.
For O=C(Nc1cccc(O)c1)c1c(O)n(-c2ccccc2)c(=S)n(-c2ccccc2)c1=O, the IC50 [1] was 49.6 µM, the Activity [2] was “inactive” and the IC50 [3] was 59.4 µM. For the same compound, the Activity [10] was “inactive”, the IC50 [5] was 94.2 µM and the IC50 [6] was 39.1 µM. For the same compound, the Activity [7] was “inactive” and the IC50 [8] was 200 µM.
With O=C1NC(=S)NC(=O)C1C(=O)Nc1ccccc1 [MERBARONE] the IC50 [1] was 18.9 µM, the IC50 [3] was 40 µM and the Activity [10] was “inactive”. For the same compound, the IC50 [5] was 83.9 µM, the IC50 [6] was 62.3 µM and the Activity [7] was “inactive”. The IC50 [8] was 120 µM.
O=C(Nc1ccc(O)cc1)c1c(O)n(-c2ccccc2)c(=S)n(-c2ccccc2)c1=O was tested, and the IC50 [1] was 42.5 µM, the Activity [2] was “inactive” and the IC50 [3] was 37.1 µM. The Activity [4] was 200 µM, the IC50 [5] was 66.1 µM and the IC50 [6] was 42.9 µM. For the same compound, the Activity [7] was “inactive” and the IC50 [8] was 150 µM.
In the case of COc1cc(NC(=O)c2c(O)n(-c3ccccc3)c(=S)n(-c3ccccc3)c2=O)cc(OC)c1O, the IC50 [1] is reported as 26.7 µM, the Activity [2] is reported as “inactive” and the IC50 [3] is reported as 17.5 µM. For the same compound, the Activity [4] was 200 µM, the IC50 [5] was 53.5 µM and the IC50 [6] was 18.1 µM. For the same compound, the Activity [7] was “inactive” and the IC50 [8] was 120 µM.
With COc1cc([C@@H]2c3cc4c(cc3[C@@H](O[C@@H]3O[C@@H]5CO[C@@H](C)O[C@H]5[C@H](O)[C@H]3O)[C@H]3COC(=O)[C@H]23)OCO4)cc(OC)c1O [ETOPOSIDE] the IC50 [1] was 1 µM, the IC50 [3] was 1.3 µM and the IC50 [5] was 10.5 µM. The IC50 [6] was 2.4 µM and the Activity [7] was “inactive”.
